Assay results reported in PubChem BioAssay AID330 (DTP/NCI, 2004).
Where “and” joins values, the source holds several entries; their conditions need not be identical. Equal entries are not always repeated. Toxic doses and inconclusive results are not listed.

System: P388 leukemia ip, CD2F1 mice, survival T/C
Test: NCI In Vivo Anticancer Drug Screen. Data for tumor model P388 Leukemia (intraperitoneal) in CD2F1 (CDF1) mice
Conditions: endpoint: median survival time, higher = longer survival
In short: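 Mice carrying the transplanted tumor received test compound or vehicle. Survival was recorded in each group, and the value is the treated-group measurement divided by that of the vehicle-treated control group.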

[1] = dose: 50.0 mg/kg/injection, schedule: Q01DX009 (ip), vehicle: saline with Tween-80
[2] = dose: 100.0 mg/kg/injection, schedule: Q01DX009 (ip), vehicle: saline with Tween-80
[3] = dose: 200.0 mg/kg/injection, schedule: Q01DX009 (ip), vehicle: saline with Tween-80
[4] = dose: 50.0 mg/kg/injection, schedule: Q01DX005 (ip), vehicle: saline
[5] = dose: 100.0 mg/kg/injection, schedule: Q01DX005 (ip), vehicle: saline
[6] = dose: 200.0 mg/kg/injection, schedule: Q01DX005 (ip), vehicle: saline
[7] = dose: 50.0 mg/kg/injection, schedule: Q01DX005 (ip), vehicle: Klucel (hydroxypropylcellulose) (HPC)
[8] = dose: 100.0 mg/kg/injection, schedule: Q01DX005 (ip), vehicle: Klucel (hydroxypropylcellulose) (HPC)
[9] = dose: 200.0 mg/kg/injection, schedule: Q01DX005 (ip), vehicle: Klucel (hydroxypropylcellulose) (HPC)

CN(C)C=Nc1ccccc1C#N
T/C [1]: 105 % of control
T/C [2]: 106 % of control
T/C [3]: 97 % of control

Cn1cc2c(c1-c1ccccc1)[n+](=O)c1ccccc1n2[O-]
T/C (dose: 50.0 mg/kg/injection, schedule: Q01DX005 (ip), vehicle: saline with Tween-80): 94 % of control
T/C (dose: 100.0 mg/kg/injection, schedule: Q01DX005 (ip), vehicle: saline with Tween-80): 91 % of control
T/C (dose: 200.0 mg/kg/injection, schedule: Q01DX005 (ip), vehicle: saline with Tween-80): 95 % of control

CC(C)NC(=O)OCc1c(COC(=O)NC(C)C)c(-c2ccc(Cl)cc2)n2c1CCC2
T/C (dose: 3.12 mg/kg/injection, schedule: Q01DX005 (ip), vehicle: distilled water + Tween-80): 161 % of control
T/C (dose: 6.25 mg/kg/injection, schedule: Q01DX005 (ip), vehicle: distilled water + Tween-80): 152 % of control
T/C (dose: 12.5 mg/kg/injection, schedule: Q01DX005 (ip), vehicle: distilled water + Tween-80): 186 % of control and 190 % of control
T/C (dose: 25.0 mg/kg/injection, schedule: Q01DX005 (ip), vehicle: distilled water + Tween-80): 186 % of control
T/C (dose: 50.0 mg/kg/injection, schedule: Q01DX005 (ip), vehicle: distilled water + Tween-80): 110 % of control and 93 % of control

COC(=O)c1ncn(Cc2ccccc2)c1N
T/C (dose: 25.0 mg/kg/injection, schedule: Q04DX002 (ip), vehicle: saline with Tween-80): 101 % of control
T/C (dose: 50.0 mg/kg/injection, schedule: Q04DX002 (ip), vehicle: saline with Tween-80): 91 % of control
T/C (dose: 100.0 mg/kg/injection, schedule: Q04DX002 (ip), vehicle: saline with Tween-80): 104 % of control and 93 % of control

CCCCOC(=O)CCC(CC(=O)OCCCC)C(=O)OCCCC (stereo not drawn)
T/C [4]: 103 % of control
T/C [5]: 103 % of control
T/C [6]: 105 % of control

CC(=O)OC(C(=O)C=[N+]=[N-])C(OC(C)=O)C(OC(C)=O)C(=O)C=[N+]=[N-] (stereo not drawn)
T/C (dose: 50.0 mg/kg/injection, schedule: Q01DX009 (ip), vehicle: Klucel (hydroxypropylcellulose) (HPC)): 99 % of control
T/C (dose: 100.0 mg/kg/injection, schedule: Q01DX009 (ip), vehicle: Klucel (hydroxypropylcellulose) (HPC)): 113 % of control
T/C (dose: 200.0 mg/kg/injection, schedule: Q01DX009 (ip), vehicle: Klucel (hydroxypropylcellulose) (HPC)): 108 % of control

CC(=O)Oc1cc(C)c2c(c1C)C1OC(=O)C(C)C1CC2 (stereo not drawn)
T/C [7]: 100 % of control
T/C [8]: 103 % of control
T/C [9]: 98 % of control

OCN(CO)c1nc(N(CO)CO)nc(N(CO)CO)n1
T/C (dose: 6.3 mg/kg/injection, schedule: Q01DX009 (ip), vehicle: saline with Tween-80): 109 % of control
T/C (dose: 12.5 mg/kg/injection, schedule: Q01DX009 (ip), vehicle: saline with Tween-80): 106 % of control
T/C [1]: 108 % of control

COc1ccc(CC2(C(=O)O)NCCS2)cc1OC (stereo not drawn)
T/C (dose: 100.0 mg/kg/injection, schedule: Q04DX003 (ip), vehicle: Klucel (hydroxypropylcellulose) (HPC)): 101 % of control
T/C (dose: 200.0 mg/kg/injection, schedule: Q04DX003 (ip), vehicle: Klucel (hydroxypropylcellulose) (HPC)): 98 % of control

CCN(CC)CCN1CC(=O)N2CCCCN2C(=O)C1
T/C [4]: 104 % of control
T/C [5]: 102 % of control
T/C [6]: 95 % of control

[CH3][Sn]([CH3])([n]1nnc2ccccc21)[n]1nnc2ccccc21
T/C (dose: 25.0 mg/kg/injection, schedule: Q01DX005 (ip), vehicle: Klucel (hydroxypropylcellulose) (HPC)): 114 % of control
T/C [7]: 115 % of control and 121 % of control
T/C [8]: 112 % of control and 115 % of control
T/C [9]: 112 % of control

Nc1cc2c(cc1Br)-c1ccccc1C2=O
T/C [1]: 96 % of control
T/C [2]: 97 % of control
T/C [3]: 90 % of control

Nc1nc(N2CCCCC2)c2nc(Cl)n(C3OC(CO)C(O)C3O)c2n1 (stereo not drawn)
T/C (dose: 60.0 mg/kg/injection, schedule: Q01DX005 (ip), vehicle: saline with Tween-80): 92 % of control
T/C (dose: 120.0 mg/kg/injection, schedule: Q01DX005 (ip), vehicle: saline with Tween-80): 101 % of control
T/C (dose: 240.0 mg/kg/injection, schedule: Q01DX005 (ip), vehicle: saline with Tween-80): 100 % of control

CCC12C(=O)C(CC)(C(c3ccccc3)=C1c1ccccc1)C1OC(=O)OC12 (stereo not drawn)
T/C [1]: 97 % of control
T/C [2]: 91 % of control
T/C [3]: 86 % of control

CC(=O)Oc1cccn2c(C(=O)C(=O)c3ccc4c(OC(C)=O)cccn34)ccc12
T/C [7]: 92 % of control
T/C [8]: 86 % of control
T/C [9]: 94 % of control

CCCCCCCCCCCC[N+]1(CCCCCCCCCCCC)CCCC(C)C1 (stereo not drawn)
T/C (dose: 0.75 mg/kg/injection, schedule: Q01DX009 (ip), vehicle: Klucel (hydroxypropylcellulose) (HPC)): 113 % of control
